The results in this text go back to PubChem BioAssay (NCI).

Common to all, as to experiment: NCI anticancer screen, dose series, 48 h
Assay [1] has as its system MDA-MB-435.
Assay [2] deals with IGROV1 ovarian.
Assay [3] has as its system SK-OV-3 ovarian.
The subject of assay [4] is TK-10 renal.
Assay [5] concerns HCT-116 colon.
The subject of assay [6] is HOP-62 NSCLC.
Assay [7] has as its system DU-145 prostate.
The subject of assay [8] is UACC-62 melanoma.
Assay [9] deals with OVCAR-3 ovarian.
The test system of assay [10] is OVCAR-4 ovarian.
Assay [11] has as its system HL-60(TB) leukemia.
Assay [12] has as its system NCI-H23 lung.
The subject of assay [13] is NCI-H226 lung.

SMILES strings stand for the structures.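 Dose response: 5 concentrations. Exposure: 48 h. Format: 96-well plates. Endpoint: linear interpolation; highest concentration if not reached. The concentration for full growth arrest is given as TGI.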

`CC1CC/C(=C\c2ccc(Cl)cc2)C(=O)/C1=C\c1ccc(Cl)cc1` (configuration not stated): the TGI was above 100 µM in assay [1]; 46.9 µM in assay [2]; above 100 µM in assay [3]; 79.8 µM in assay [4]; above 100 µM in assay [5]; 57.9 µM in [6]. Moreover, the TGI was above 100 µM in assay [7] and 57.3 µM in [8].

For the molecule `Cc1cc(Cl)ccc1NC(=O)/C(Cc1nc2ccc(C(=O)c3ccccc3)cc2[nH]c1=O)=N/NC(=O)c1ccncc1`, the TGI in [1], in [9], in assay [2], in [3], in assay [10] and in assay [4] was above 100 µM in each case. For the same molecule, the TGI in assay [11], in assay [12], in [13], in assay [5], in assay [6] and in [8] was above 100 µM throughout.

Turning to `O=C1c2scc(-c3ccc(F)cc3)c2-n2cccc21`, the TGI in [1] is 31.4 µM; in assay [9] it was above 100 µM; in assay [2], above 100 µM; in [3], above 100 µM; in [10] it was above 100 µM; in assay [4], above 100 µM. For the same molecule, the TGI in [13] was above 100 µM; in [5] it was above 100 µM; in assay [6] it was 64.4 µM; in [7], above 100 µM; in assay [8], above 100 µM.

On to `COc1cccc2c1C(=O)c1c(O)c3c(c(O)c1C2=O)CC(O)(C(C)=O)CC3OC1CC([N+](C)(C)C)C(O)C(C)O1` (configuration not stated), for which the TGI in assay [9], in assay [2], in assay [3], in assay [10], in assay [4] and in [11] was above 100 µM in each case. Also, the TGI in assay [12], in assay [13], in [5], in [6] and in [8] was above 100 µM each time.

As for `CCCCn1c(C)c(C)c2c1NN=C(C#N)S2(=O)=O`, the TGI in [1], in [9], in [2], in [3], in assay [10] and in assay [4] was above 100 µM each time. The TGI in assay [12], in assay [5], in [6], in [7] and in [8] was above 100 µM each time.

For the molecule `C=CCN1C(=O)/C(=C/c2ccccc2)N=C1SC/C=C/C`, the TGI in assay [1], in assay [9], in [2], in assay [3], in assay [10] and in assay [4] was above 100 µM throughout. For the same molecule, the TGI in assay [12], in assay [13], in assay [5], in assay [6], in assay [7] and in assay [8] was above 100 µM in each case.

For the molecule `CC[N+](C)(C)c1ccc(C(=C2C=CC(=[N+](C)C)C=C2)c2ccc(N(C)C)cc2)cc1`, the TGI in assay [9] was found to be 22.5 µM; in [2], 40.8 µM; in assay [3], 55 µM; in assay [10] it was 38.3 µM; in assay [4], 97.6 µM; in assay [11], 6 µM. Besides, the TGI in [12] was found to be 55 µM; in [13] it was 52.8 µM; in assay [5] it was 19.5 µM; in assay [6], 41.2 µM; in assay [8], 29.7 µM.

Turning to `CNc1nc2c(C)ccc3nc(N(C)C)nc-3c2n1C`, the TGI in assay [1], in assay [9], in assay [2], in [3], in assay [10] and in assay [4] was above 10 µM throughout. In addition, the TGI in assay [12], in assay [13], in [5], in assay [6] and in assay [7] was above 10 µM throughout.

For the molecule `O=C(/C=C/c1ccsc1)c1cccs1`, the TGI in assay [1] was above 10 µM; in assay [9] it was 57.3 µM; in assay [2], above 100 µM; in assay [3] it was above 100 µM; in assay [10], above 100 µM; in assay [4], above 100 µM. Also, the TGI in [12] was 68 µM; in [13], above 100 µM; in [5], 31.1 µM; in assay [6], above 100 µM; in assay [7], above 100 µM; in assay [8], 88.5 µM.

`[N-]=[N+]=NC1(c2ccccc2)C(=O)c2cccc3c4ccccc4n(c23)C1=O` (configuration not stated): the TGI in assay [1] is 92.8 µM; in assay [9], above 100 µM; in assay [2], above 100 µM; in assay [3] it was above 100 µM; in [10], above 100 µM; in assay [4], above 100 µM. Moreover, the TGI in [12], in assay [13], in [5], in [6], in assay [7] and in [8] was above 100 µM in each case.

Take `CC12CC(=O)OC(Cc3ccccc31)O2` (configuration not stated): the TGI in [9], in assay [2], in [3], in assay [4], in assay [11] and in assay [12] was above 100 µM throughout. Moreover, the TGI in assay [13], in [5], in assay [6] and in [8] was above 100 µM throughout.

Regarding `CCOC(=O)C(C)c1nc2cc(F)c(N3CCOCC3)cc2[nH]c1=O` (configuration not stated), the TGI in assay [1], in assay [9], in assay [2], in assay [3], in [10] and in assay [4] was above 100 µM throughout. The TGI in [12], in assay [13], in [5], in assay [6], in assay [7] and in [8] was above 100 µM throughout.

With `Cc1c2[nH]c3ccc(Br)cc3c2c(C)c2[nH]ccc(=O)c12`, the TGI stood at 32.2 µM in assay [9]; 31.3 µM in assay [10]; 26.9 µM in assay [4]; 38.5 µM in assay [11]; 37.8 µM in assay [12]; 35.9 µM in assay [13]. Moreover, the TGI is 28.2 µM in assay [5] and 28.6 µM in assay [6].

For `O=C1CSC2(CC(/C=C/c3cccc(Br)c3)=NN2c2cccc(S(=O)(=O)O)c2)N1c1nc2ccccc2s1` (configuration not stated), the TGI in assay [1], in assay [9], in [2], in [3], in [10] and in [4] was above 100 µM each time. In addition, the TGI in assay [12], in assay [13], in assay [5], in [6], in [7] and in [8] was above 100 µM each time.

With `O=S(=O)(O)c1cc(S(=O)(=O)O)c2c(N=Nc3ccccc3)c(O)ccc2c1`, the TGI in assay [1], in assay [9], in [2], in [3], in [10] and in [4] was above 100 µM throughout. Moreover, the TGI in [12], in assay [13], in assay [5], in assay [6], in assay [7] and in assay [8] was above 100 µM in each case.

Regarding `COC1=C(OC)C(=O)c2cc(SC)c(=O)c(SC)cc2C1=O`, the TGI is 23.4 µM in [9]; above 100 µM in assay [2]; above 100 µM in assay [3]; 24.8 µM in assay [10]; above 100 µM in assay [4]; 3.97 µM in [11]. The TGI in assay [12] is 20.2 µM; in assay [13] it was 28.4 µM; in assay [5], 46.3 µM; in [6] it was 31.2 µM; in [8], 4.45 µM.

For the molecule `CN1NC2=NCCN=C3NN(C)C(=NCCN=C1S2)S3`, the TGI in assay [2], in assay [10], in assay [11], in assay [12], in assay [13] and in assay [5] was above 100 µM throughout. In addition, the TGI in [6] and in assay [8] was above 100 µM each time.

Consider `CC1=CC(=C(c2ccc(N)c(C)c2)c2ccc(N)c(C)c2)C=CC1=N`, for which the TGI in assay [9] is 16.7 µM; in [2], 71.8 µM; in assay [3], 30.4 µM; in [10] it was 52.8 µM; in [4], above 66.2 µM; in assay [11], 17.5 µM. In addition, the TGI amounted to 12.5 µM in assay [12]; 33.6 µM in [13]; 13.3 µM in assay [5]; 10.4 µM in [6]; 10.2 µM in [8].

`CCOC(=O)C12C3CCC1C2C(=O)C3` (configuration not stated): the TGI in assay [1], in [9], in assay [2], in [3], in [10] and in assay [4] was above 100 µM each time. Besides, the TGI in assay [12], in assay [13], in [5], in [6], in assay [7] and in [8] was above 100 µM each time.

For the molecule `Clc1ccccc1-c1nn2c(CCCCCCCCc3nnc4sc(-c5ccccc5Cl)nn34)nnc2s1`, the TGI in assay [1], in [9], in [3], in assay [10], in [4] and in assay [12] was above 100 µM each time. Further, the TGI in [13], in assay [5], in [6], in assay [7] and in [8] was above 100 µM each time.

Regarding `CCOC(=O)Nn1cnnc1Cc1ccccc1`, the TGI in assay [1], in assay [9], in assay [2], in assay [3], in assay [10] and in assay [4] was above 100 µM throughout. Further, the TGI in assay [12], in assay [13], in [5], in assay [6] and in assay [8] was above 100 µM throughout.

With `C=C[C@@]1(C)CC(=O)[C@]2(O)[C@@]3(C)[C@@H](OC(C)=O)CCC(C)(C)[C@@H]3[C@H](O)[C@H](OC(C)=O)[C@@]2(C)O1`, the TGI in [1], in assay [9], in [2], in assay [3], in assay [10] and in assay [12] was above 100 µM throughout. In addition, the TGI in [13], in [5], in assay [6], in assay [7] and in assay [8] was above 100 µM each time.

For the molecule `O=[N+]([O-])/C(C(Cl)=C(Cl)Cl)=C(\Nc1cccc2cccnc12)Sc1ccccc1`, the TGI in [1] is 42.7 µM; in assay [9] it was 28.3 µM; in assay [3], above 100 µM; in [10], 51.4 µM; in assay [12], 37.6 µM; in assay [13], 86.6 µM. The TGI in [5] was 39 µM; in assay [6], 80.7 µM; in assay [7] it was 78.4 µM; in [8] it was 88.4 µM.

On to `c1ccc2c(c1)Sc1ccccc1N2CCCN1c2ccccc2Sc2ccccc21`, for which the TGI in [1], in [9], in assay [2], in assay [3], in assay [10] and in assay [4] was above 100 µM throughout. In addition, the TGI in assay [12], in [13], in [5], in assay [6], in assay [7] and in assay [8] was above 100 µM each time.
